# Results: the supplement of paper PMC11451515
# Tested on: P12-Ichikawa
# Test: cell viability relative to DMSO control; higher = less cytotoxic
# Conditions: 48 h
# Outline: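 NOMO1 or SEM (500 cells/well) or P12-Ichikawa (1000 cells/well) leukemia cells were adapted for at least four passages in each medium. They were seeded in 1536-well plates (5 μl) and pin-dosed with library compounds in DMSO over an 11-point threefold series, 47 μM to 0.79 nM. CellTiter-Glo One luminescence was read after 48 h at 37°C. Viability is the per-plate percentage relative to DMSO wells, with cell-free wells as background.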
# [1] = HPLM + 10% dialyzed FBS, 0.000781 µM
# [2] = HPLM + 10% dialyzed FBS, 0.00234 µM
# [3] = HPLM + 10% dialyzed FBS, 0.00702 µM
# [4] = HPLM + 10% dialyzed FBS, 0.0211 µM
# [5] = HPLM + 10% dialyzed FBS, 0.0632 µM
# [6] = HPLM + 10% dialyzed FBS, 0.19 µM
# [7] = HPLM + 10% dialyzed FBS, 0.569 µM
# [8] = HPLM + 10% dialyzed FBS, 1.71 µM
# [9] = HPLM + 10% dialyzed FBS, 5.12 µM
# [10] = HPLM + 10% dialyzed FBS, 15.4 µM
# [11] = HPLM + 10% dialyzed FBS, 46.1 µM
# [12] = RPMI 5 mM glucose + 10% FBS, 0.000781 µM
# [13] = RPMI 5 mM glucose + 10% FBS, 0.00234 µM
# [14] = RPMI 5 mM glucose + 10% FBS, 0.00702 µM
# [15] = RPMI 5 mM glucose + 10% FBS, 0.0211 µM
# [16] = RPMI 5 mM glucose + 10% FBS, 0.0632 µM
# [17] = RPMI 5 mM glucose + 10% FBS, 0.19 µM
# [18] = RPMI 5 mM glucose + 10% FBS, 0.569 µM
# [19] = RPMI 5 mM glucose + 10% FBS, 1.71 µM
# [20] = RPMI 5 mM glucose + 10% FBS, 5.12 µM
# [21] = RPMI 5 mM glucose + 10% FBS, 15.4 µM
# [22] = RPMI 5 mM glucose + 10% FBS, 46.1 µM
# [23] = RPMI 5 mM glucose + 10% dialyzed FBS, 0.000781 µM
# [24] = RPMI 5 mM glucose + 10% dialyzed FBS, 0.00234 µM
# [25] = RPMI 5 mM glucose + 10% dialyzed FBS, 0.00702 µM
# [26] = RPMI 5 mM glucose + 10% dialyzed FBS, 0.0211 µM
# [27] = RPMI 5 mM glucose + 10% dialyzed FBS, 0.0632 µM
# [28] = RPMI 5 mM glucose + 10% dialyzed FBS, 0.19 µM
# [29] = RPMI 5 mM glucose + 10% dialyzed FBS, 0.569 µM
# [30] = RPMI 5 mM glucose + 10% dialyzed FBS, 1.71 µM
# [31] = RPMI 5 mM glucose + 10% dialyzed FBS, 5.12 µM
# [32] = RPMI 5 mM glucose + 10% dialyzed FBS, 15.4 µM
# [33] = RPMI 5 mM glucose + 10% dialyzed FBS, 46.1 µM
smiles,measurement,setting,value
CC(=O)O.Cc1c(-c2ccc(O)cc2)n(Cc2ccc(OCCN3CCCCCC3)cc2)c2ccc(O)cc12,cell viability,[1],103%
same,cell viability,[2],101%
same,cell viability,[3],99.2%
same,cell viability,[4],98.1%
same,cell viability,[5],101%
same,cell viability,[6],111%
same,cell viability,[7],101%
same,cell viability,[8],106%
same,cell viability,[9],106%
same,cell viability,[10],101%
same,cell viability,[11],100%
same,cell viability,[12],92.3%
same,cell viability,[13],92.5%
same,cell viability,[14],92.4%
same,cell viability,[15],87.6%
same,cell viability,[16],99.3%
same,cell viability,[17],103%
same,cell viability,[18],96.1%
same,cell viability,[19],109%
same,cell viability,[20],101%
same,cell viability,[21],100%
same,cell viability,[22],101%
same,cell viability,[23],89.2%
same,cell viability,[24],94.5%
same,cell viability,[25],96.3%
same,cell viability,[26],94.5%
same,cell viability,[27],92.5%
same,cell viability,[28],98.9%
same,cell viability,[29],98.3%
same,cell viability,[30],95.4%
same,cell viability,[31],113%
same,cell viability,[32],104%
same,cell viability,[33],100%
c1cncc(CN2CCC(n3ncc4c(N5CCOCC5)nc(-c5ccc6[nH]ccc6c5)nc43)CC2)c1,cell viability,[1],96.5%
same,cell viability,[2],99.9%
same,cell viability,[3],98.8%
same,cell viability,[4],97.5%
same,cell viability,[5],105%
same,cell viability,[6],92.2%
same,cell viability,[7],91.8%
same,cell viability,[8],88.5%
same,cell viability,[9],83.9%
same,cell viability,[10],64.8%
same,cell viability,[11],46.1%
same,cell viability,[12],77.9%
same,cell viability,[13],89.7%
same,cell viability,[14],95.4%
same,cell viability,[15],87.9%
same,cell viability,[16],91.6%
same,cell viability,[17],84.9%
same,cell viability,[18],76.1%
same,cell viability,[19],75.7%
same,cell viability,[20],63.5%
same,cell viability,[21],32.6%
same,cell viability,[22],9.35%
same,cell viability,[23],86.5%
same,cell viability,[24],92.9%
same,cell viability,[25],89.5%
same,cell viability,[26],91.7%
same,cell viability,[27],91.5%
same,cell viability,[28],81.7%
same,cell viability,[29],78.6%
same,cell viability,[30],74.6%
same,cell viability,[31],69.9%
same,cell viability,[32],31.7%
same,cell viability,[33],5.49%
CC/C(=C(/c1ccc(O)cc1)c1ccc(OCCNC)cc1)c1ccccc1,cell viability,[1],105%
same,cell viability,[2],108%
same,cell viability,[3],110%
same,cell viability,[4],115%
same,cell viability,[5],118%
same,cell viability,[6],94.8%
same,cell viability,[7],104%
same,cell viability,[8],106%
same,cell viability,[9],71.9%
same,cell viability,[10],63%
same,cell viability,[11],68.6%
same,cell viability,[12],116%
same,cell viability,[13],108%
same,cell viability,[14],109%
same,cell viability,[15],108%
same,cell viability,[16],114%
same,cell viability,[17],122%
same,cell viability,[18],113%
same,cell viability,[19],107%
same,cell viability,[20],68.3%
same,cell viability,[21],53.7%
same,cell viability,[22],42%
same,cell viability,[23],115%
same,cell viability,[24],116%
same,cell viability,[25],116%
same,cell viability,[26],117%
same,cell viability,[27],120%
same,cell viability,[28],126%
same,cell viability,[29],119%
same,cell viability,[30],101%
same,cell viability,[31],64.7%
same,cell viability,[32],49.4%
same,cell viability,[33],46.5%
CCCCCOC(=O)NC\1=N\C(=O)N(\C=C1F)[C@@H]2O[C@H](C)[C@@H](O)[C@H]2O,cell viability,[1],107%
same,cell viability,[2],91.7%
same,cell viability,[3],101%
same,cell viability,[4],103%
same,cell viability,[5],97.1%
same,cell viability,[6],103%
same,cell viability,[7],93.8%
same,cell viability,[8],96.4%
same,cell viability,[9],94.2%
same,cell viability,[10],89.9%
same,cell viability,[11],86.7%
same,cell viability,[12],96.7%
same,cell viability,[13],99.4%
same,cell viability,[14],97.4%
same,cell viability,[15],93.7%
same,cell viability,[16],101%
same,cell viability,[17],91.5%
same,cell viability,[18],92.6%
same,cell viability,[19],93.3%
same,cell viability,[20],89.6%
same,cell viability,[21],77.3%
same,cell viability,[22],84%
same,cell viability,[23],101%
same,cell viability,[24],96.1%
same,cell viability,[25],96.2%
same,cell viability,[26],94.8%
same,cell viability,[27],100%
same,cell viability,[28],93%
same,cell viability,[29],91.2%
same,cell viability,[30],87.2%
same,cell viability,[31],90.1%
same,cell viability,[32],83.8%
same,cell viability,[33],83.8%
CC(=O)Oc1ccccc1C(=O)O,cell viability,[1],99.8%
same,cell viability,[2],96.4%
same,cell viability,[3],102%
same,cell viability,[4],93.9%
same,cell viability,[5],101%
same,cell viability,[6],101%
same,cell viability,[7],96.6%
same,cell viability,[8],95.5%
same,cell viability,[9],90.3%
same,cell viability,[10],96.4%
same,cell viability,[11],101%
same,cell viability,[12],106%
same,cell viability,[13],101%
same,cell viability,[14],104%
same,cell viability,[15],98.6%
same,cell viability,[16],101%
same,cell viability,[17],86.5%
same,cell viability,[18],87.3%
same,cell viability,[19],105%
same,cell viability,[20],95.9%
same,cell viability,[21],96.4%
same,cell viability,[22],99.3%
same,cell viability,[23],97.2%
same,cell viability,[24],97.5%
same,cell viability,[25],98.7%
same,cell viability,[26],105%
same,cell viability,[27],101%
same,cell viability,[28],93.6%
same,cell viability,[29],89.2%
same,cell viability,[30],99.6%
same,cell viability,[31],93.2%
same,cell viability,[32],104%
same,cell viability,[33],103%
CC1(C)Cc2c(-c3ccccc3)c(-c3ccc(Cl)cc3)c(CC(=O)O)n2C1,cell viability,[1],120%
same,cell viability,[2],118%
same,cell viability,[3],117%
same,cell viability,[4],122%
same,cell viability,[5],118%
same,cell viability,[6],110%
same,cell viability,[7],107%
same,cell viability,[8],112%
same,cell viability,[9],105%
same,cell viability,[10],103%
same,cell viability,[11],95.6%
same,cell viability,[12],115%
same,cell viability,[13],112%
same,cell viability,[14],118%
same,cell viability,[15],118%
same,cell viability,[16],110%
same,cell viability,[17],107%
same,cell viability,[18],111%
same,cell viability,[19],110%
same,cell viability,[20],97.8%
same,cell viability,[21],99.6%
same,cell viability,[22],83.5%
same,cell viability,[23],106%
same,cell viability,[24],108%
same,cell viability,[25],115%
same,cell viability,[26],102%
same,cell viability,[27],107%
same,cell viability,[28],102%
same,cell viability,[29],106%
same,cell viability,[30],104%
same,cell viability,[31],103%
same,cell viability,[32],98.1%
same,cell viability,[33],86%
CO[C@H]1/C=C/O[C@@]2(C)Oc3c(C)c(O)c4c(O)c(c5c(nc6cc(C)ccn65)c4c3C2=O)NC(=O)/C(C)=C\C=C\[C@H](C)[C@H](O)[C@@H](C)[C@@H](O)[C@@H](C)[C@H](OC(C)=O)[C@@H]1C,cell viability,[1],108%
same,cell viability,[2],98.3%
same,cell viability,[3],107%
same,cell viability,[4],106%
same,cell viability,[5],107%
same,cell viability,[6],106%
same,cell viability,[7],104%
same,cell viability,[8],102%
same,cell viability,[9],50.2%
same,cell viability,[10],89.4%
same,cell viability,[11],9.34%
same,cell viability,[12],103%
same,cell viability,[13],103%
same,cell viability,[14],113%
same,cell viability,[15],102%
same,cell viability,[16],114%
same,cell viability,[17],101%
same,cell viability,[18],94.1%
same,cell viability,[19],103%
same,cell viability,[20],46.5%
same,cell viability,[21],72.8%
same,cell viability,[22],35.1%
same,cell viability,[23],105%
same,cell viability,[24],100%
same,cell viability,[25],101%
same,cell viability,[26],99.9%
same,cell viability,[27],101%
same,cell viability,[28],97.7%
same,cell viability,[29],102%
same,cell viability,[30],92.9%
same,cell viability,[31],41.8%
same,cell viability,[32],77.3%
same,cell viability,[33],33.7%
C=C(C)[C@@H]1CC[C@]2(C(=O)O)CC[C@]3(C)[C@H](CC[C@@H]4[C@@]5(C)CC[C@H](O)C(C)(C)[C@@H]5CC[C@]43C)[C@@H]12,cell viability,[1],111%
same,cell viability,[2],123%
same,cell viability,[3],120%
same,cell viability,[4],114%
same,cell viability,[5],116%
same,cell viability,[6],111%
same,cell viability,[7],109%
same,cell viability,[8],103%
same,cell viability,[9],99.9%
same,cell viability,[10],99.1%
same,cell viability,[11],97.3%
same,cell viability,[12],108%
same,cell viability,[13],116%
same,cell viability,[14],114%
same,cell viability,[15],109%
same,cell viability,[16],116%
same,cell viability,[17],107%
same,cell viability,[18],119%
same,cell viability,[19],106%
same,cell viability,[20],97.8%
same,cell viability,[21],98.5%
same,cell viability,[22],103%
same,cell viability,[23],114%
same,cell viability,[24],121%
same,cell viability,[25],120%
same,cell viability,[26],110%
same,cell viability,[27],108%
same,cell viability,[28],102%
same,cell viability,[29],111%
same,cell viability,[30],100%
same,cell viability,[31],95.1%
same,cell viability,[32],94.3%
same,cell viability,[33],87.3%
